Test results reported in US4130709A, “Pleuromutilin glycoside derivatives” (Eli Lilly and Company, priority 1977, dated 1978).
≈ marks a conversion by molar mass, not a printed value. Where two headings read alike, the source gives them in different places.

Assays:
Type in all cases: cell-based
[1] = test system: Peptostreptococcus anaerobius; assay: standard agar-dilution test, anaerobic bacteria; conditions: 24-hour incubation
Peptococcus prevoti = assay: standard agar-dilution test, anaerobic bacteria
[2] = test system: Bacteroides melaninogenicus 2736; assay: standard agar-dilution test, anaerobic bacteria; conditions: Bacteroides melaninogenicus 2736; 24-hour incubation; read-out: MIC
Clostridium septicum = assay: standard agar-dilution test, anaerobic bacteria; conditions: 24-hour incubation
Protocol: (§1) Table IV summarizes the activity of typical compounds of this invention, as determined by the standard agar-dilution test.
(§2) *Endpoint read after 24-hour incubation

[3] = test system: Bacteroides thetaiotaomicron; assay: standard agar-dilution test, anaerobic bacteria; conditions: 24-hour incubation
Protocol: as §1, §2

[4] = test system: Staphylococcus aureus (H-Heatley) NRRL B-314; assay: in vitro turbidometric assay (Autoturb Microbiological Assay System) against Staphylococcus aureus; conditions: nutrient broth pH 7, approximately 4 hours at 37° C., A-40104 factor A as standard
Protocol: The compounds are conveniently tested against a typical gram-positive organism, Staphylococcus aureus, using a turbidometric assay on a semi-automated system (Autoturb Microbiological Assay System, Elanco) described by N. R. Kuzel and F. W. Kavanagh in J. Pharmaceut. Sci, 60 (5), 764 and 767 (1971). In testing these compounds, the following parameters were used: Staphylococcus aureus (H-Heatley) NRRL B-314 in a nutrient broth medium (pH 7), incubated for approximately 4 hours at 37° C. Test samples and A-40104 factor A, which is used as a standard, were dissolved in water. The standard was presented to the Autoturb carrousel at concentrations of 1.25, 2.50, 3.75, 5.00 and 6.25 mcg/ml. Test compounds were diluted to contain approximately 2.5 to 5.0 mcg of activity per ml, as presented to the carrousel. The units of activity of some of the typical compounds of this invention (R^2 =H in group tested) in this in vitro assay are summarized in Table I

[5] = test system: Peptococcus asaccharolyticus; assay: standard agar-dilution test, anaerobic bacteria; conditions: Peptoniphilus asaccharolyticus, 24-hour incubation
[6] = test system: Bacteroides fragilis 1936B; assay: standard agar-dilution test, anaerobic bacteria
Fusobacterium symbiosum = assay: standard agar-dilution test, anaerobic bacteria
Bacteroides corrodens = assay: standard agar-dilution test, anaerobic bacteria; conditions: Eikenella corrodens
Clostridium perfringens = assay: microbe, parasite or virus in culture; conditions: 24 h
Bacteroides fragilis 111 = assay: standard agar-dilution test, anaerobic bacteria
[7] = test system: Fusobacterium necrophorum; assay: standard agar-dilution test, anaerobic bacteria
Actinomyces israelii = assay: standard agar-dilution test, anaerobic bacteria; conditions: 24-hour incubation
[8] = test system: Peptostreptococcus intermedius; assay: standard agar-dilution test, anaerobic bacteria
Bacteroides vulgatis = assay: standard agar-dilution test, anaerobic bacteria
Eubacterium aerofaciens = assay: standard agar-dilution test, anaerobic bacteria; conditions: Collinsella aerofaciens
[9] = test system: Bacteroides fragilis 1877; assay: standard agar-dilution test, anaerobic bacteria
Spiroplasma citri = assay: in vitro inhibition of Spiroplasma citri measured by a color reaction; design: key to Activity (color reaction): Red (R) includes complete inhibition; red-orange (RO) indicates partial inhibition; yellow (Y) indicates no inhibition
Protocol: In another important aspect, the compounds of this invention are active against Spiroplasmas. Spiroplasma citri is the causative agent of citrus-stubborn disease; another Spiroplasma, corn-stunt Spiroplasma, affects the growth of corn. Table VII summarizes the in vitro activity of representative compounds of the present invention (R^2 =H in this group) against Spiroplasma citri. In this test, inhibition of S. citri is measured by a color reaction. Red (R) includes complete inhibition; red-orange (RO) indicates partial inhibition; and yellow (Y) indicates no inhibition.

[10] = test system: Bacteroides melaninogenicus 1856/28; assay: standard agar-dilution test, anaerobic bacteria; conditions: Prevotella intermedia
Mycoplasma hyorhinis = assay: in vitro broth-dilution studies, mycoplasma
Excerpt: (§3) The minimal inhibitory concentrations (MIC's) of a number of typical compounds of the present invention (R^2 =H in group tested) against various mycoplasma species, as determined by in vitro broth-dilution studies, are summarized in Table V.

Mycoplasma synoviae = assay: in vitro broth-dilution studies, mycoplasma; conditions: Mycoplasmopsis synoviae
Excerpt: as §3

Mycoplasma gallisepticum = assay: in vitro broth-dilution studies, mycoplasma; conditions: Mycoplasmoides gallisepticum
Excerpt: as §3

[11] = Peptococcus prevoti, 24-hour incubation, read-out: MIC
[12] = Bacteroides fragilis 1936B, 24-hour incubation, read-out: MIC
[13] = Fusobacterium symbiosum, 24-hour incubation, read-out: MIC
[14] = Bacteroides corrodens, 24-hour incubation, read-out: MIC
[15] = Bacteroides fragilis 111, 24-hour incubation, read-out: MIC
[16] = 24-hour incubation, read-out: MIC
[17] = Peptostreptococcus intermedius, 24-hour incubation, read-out: MIC
[18] = Bacteroides vulgatis, 24-hour incubation, read-out: MIC
[19] = Eubacterium aerofaciens, 24-hour incubation, read-out: MIC
[20] = Bacteroides fragilis 1877, 24-hour incubation, read-out: MIC
[21] = Bacteroides melaninogenicus 1856/28, 24-hour incubation, read-out: MIC
[22] = Bacteroides fragilis, 111, 24 h

Row | SMILES | MIC [1] [µg/mL] | MIC (Peptococcus prevoti; [11]) [µg/mL] | MIC [2] [µg/mL] | MIC (Clostridium septicum) [µg/mL] | MIC [3] [µg/mL] | Units of Activity [4] [µg/mg] | MIC [5] [µg/mL] | MIC [6, 12] [µg/mL] | MIC (Bacteroides corrodens; [14]) [µg/mL] | MIC (Clostridium perfringens) [µg/mL] | MIC [7, 16] [µg/mL] | MIC (Actinomyces israelii) [µg/mL] | MIC [8, 17] [µg/mL] | MIC (Bacteroides vulgatis; [18]) [µg/mL] | MIC [9, 20] [µg/mL] | Activity (color reaction) (Spiroplasma citri; 1.0 ppm) | MIC (Mycoplasma hyorhinis) [µg/mL] | MIC (Mycoplasma synoviae) [µg/mL] | MIC (Mycoplasma gallisepticum) [µg/mL] | also measured
1 | CC[C@]1(C)C[C@@H](OC(=O)CS[C@@H]2O[C@H](CO)[C@@H](O)[C@H](O)[C@H]2O)[C@]2(C)[C@H](C)CC[C@]3(CCC(=O)[C@H]32)[C@@H](C)[C@@H]1O [Compound 5, 14-deoxy-14-[(β-D-glucopyranosyl)thioacetoxy]-19,20-dihydromutilin] | 8 (≈ 14.3 µM) | 2 (≈ 3.58 µM) | 4 (≈ 7.16 µM) | 32 (≈ 57.3 µM) | 64 (≈ 115 µM) | 29 to 31 | 4 (≈ 7.16 µM) | 128 (≈ 229 µM) | 64 (≈ 115 µM) | 8 (≈ 14.3 µM) | 8 (≈ 14.3 µM) | ≤ 0.5 | 2 (≈ 3.58 µM) | 32 (≈ 57.3 µM) | 64 (≈ 115 µM) | R | – | – | – | MIC (Fusobacterium symbiosum; [13]): 16 µg/mL (≈ 28.6 µM); MIC (Bacteroides fragilis 111; [15]): 64 µg/mL (≈ 115 µM); MIC (Eubacterium aerofaciens; [19]): 4 µg/mL (≈ 7.16 µM); Activity (color reaction) (Spiroplasma citri; 0.01 ppm): Y; Activity (color reaction) (Spiroplasma citri; 0.05 ppm): R; Activity (color reaction) (Spiroplasma citri; 0.1 ppm): R; MIC [10, 21]: 2 µg/mL (≈ 3.58 µM)
2 | C=C[C@]1(C)C[C@@H](OC(=O)CO[C@H]2O[C@H](COC(C)=O)[C@@H](OC(C)=O)[C@H](OC(C)=O)C2=NO)[C@]2(C)[C@H](C)CC[C@]3(CCC(=O)[C@H]32)[C@@H](C)[C@@H]1O [Compound 7, 14-deoxy-14-[(2-deoxy-2-(hydroxyimino)-3,4,6-tri-O-acetyl-α-D-glucopyranosyl)oxyacetoxy]mutilin] | 64 (≈ 94.2 µM) | – | 32 (≈ 47.1 µM) | > 128 | > 128 | 11 to 12 | 64 (≈ 94.2 µM) | – | – | > 128 | – | 64 (≈ 94.2 µM) | – | – | – | – | 0.78 (≈ 1.15 µM) | > 6.25 | 0.78 (≈ 1.15 µM) | MIC (Peptococcus prevoti; 24 h): 128 µg/mL (≈ 188 µM); MIC ([6]; Bacteroides fragilis, 1936B, 24 h): > 128 µg/mL; MIC (Fusobacterium symbiosum; Fusobacterium, 24 h): > 128 µg/mL; MIC (Bacteroides corrodens; 24 h): > 128 µg/mL; MIC (Bacteroides fragilis 111; [22]): > 128 µg/mL; MIC ([7]; 24 h): > 128 µg/mL; MIC ([8]; Peptostreptococcus, 24 h): > 128 µg/mL; MIC (Bacteroides vulgatis; Bacteroides, 24 h): > 128 µg/mL; MIC (Eubacterium aerofaciens; 24 h): > 128 µg/mL; MIC ([9]; Bacteroides fragilis, 1877, 24 h): > 128 µg/mL; MIC ([10]; 1856/28, 24 h): > 128 µg/mL
3 | C=C[C@]1(C)C[C@@H](OC(=O)CS[C@@H]2O[C@H](CO)[C@@H](O)[C@H](O)[C@H]2O)[C@]2(C)[C@H](C)CC[C@]3(CCC(=O)[C@H]32)[C@@H](C)[C@@H]1O [Compound 10, 14-deoxy-14-[(β-D-glucopyranosyl)thioacetoxy]mutilin] | ≤ 0.5 | 16 (≈ 28.7 µM) | 32 (≈ 57.5 µM) | 64 (≈ 115 µM) | 64 (≈ 115 µM) | 36 | 16 (≈ 28.7 µM) | 64 (≈ 115 µM) | 64 (≈ 115 µM) | 64 (≈ 115 µM) | 2 (≈ 3.59 µM) | 2 (≈ 3.59 µM) | 4 (≈ 7.18 µM) | 64 (≈ 115 µM) | 64 (≈ 115 µM) | – | 1.56 (≈ 2.8 µM) | 3.12 (≈ 5.6 µM) | 1.56 (≈ 2.8 µM) | MIC (Fusobacterium symbiosum; [13]): 64 µg/mL (≈ 115 µM); MIC (Bacteroides fragilis 111; [15]): 128 µg/mL (≈ 230 µM); MIC (Eubacterium aerofaciens; [19]): 16 µg/mL (≈ 28.7 µM); MIC [10, 21]: > 128 µg/mL
4 | C=C[C@]1(C)C[C@@H](OC(=O)CS[C@@H]2O[C@H](COC(C)=O)[C@@H](OC(C)=O)[C@H](OC(C)=O)[C@H]2OC(C)=O)[C@]2(C)[C@H](C)CC[C@]3(CCC(=O)[C@H]32)[C@@H](C)[C@@H]1O [Compound 11, 14-deoxy-14-[(2,3,4,6-tetra-O-acetyl-β-D-glucopyranosyl)thioacetoxy]mutilin] | ≤ 0.5 | ≤ 0.5 | 16 (≈ 22.1 µM) | 16 (≈ 22.1 µM) | 16 (≈ 22.1 µM) | 253 to 265 | ≤ 0.5 | 32 (≈ 44.1 µM) | 32 (≈ 44.1 µM) | > 128 | 16 (≈ 22.1 µM) | ≤ 0.5 | 1 (≈ 1.38 µM) | 32 (≈ 44.1 µM) | 32 (≈ 44.1 µM) | – | > 0.78 | 1.56 (≈ 2.15 µM) | > 0.78 | MIC (Fusobacterium symbiosum; Fusobacterium, 24 h): 128 µg/mL (≈ 177 µM); MIC (Bacteroides fragilis 111; [22]): 128 µg/mL (≈ 177 µM); MIC (Eubacterium aerofaciens; 24 h): > 128 µg/mL; MIC ([10]; 1856/28, 24 h): > 128 µg/mL
5 | C=C[C@]1(C)C[C@@H](OC(=O)CO[C@H]2O[C@H](COCc3ccccc3)[C@@H](OCc3ccccc3)[C@H](OCc3ccccc3)[C@H]2OCc2ccccc2)[C@]2(C)[C@H](C)CC[C@]3(CCC(=O)[C@H]32)[C@@H](C)[C@@H]1O [Example 1, 14-deoxy-14-[(2,3,4,6-tetra-O-benzyl-α-D-glucopyranosyl)oxyacetoxy]mutilin] | – | – | – | – | – | – | – | – | – | – | – | – | – | – | – | – | 50 (≈ 55.5 µM) | 50 (≈ 55.5 µM) | 25 (≈ 27.7 µM) | –
6 | C=C[C@]1(C)C[C@@H](OC(=O)CO[C@@H]2O[C@H](COC(C)=O)[C@@H](OC(C)=O)[C@H](OC(C)=O)[C@H]2OC(C)=O)[C@]2(C)[C@H](C)CC[C@]3(CCC(=O)[C@H]32)[C@@H](C)[C@@H]1O [Example 3, 14-deoxy-14-[(2,3,4,6-tetra-O-acetyl-β-D-glucopyranosyl)oxyacetoxy]mutilin] | – | – | – | – | – | 75 to 85 | – | – | – | – | – | – | – | – | – | R | 0.78 (≈ 1.1 µM) | 0.78 (≈ 1.1 µM) | 0.78 (≈ 1.1 µM) | –
7 | C=C[C@]1(C)C[C@@H](OC(=O)CO[C@@H]2O[C@H](CO)[C@@H](O)[C@H](O)[C@H]2O)[C@]2(C)[C@H](C)CC[C@]3(CCC(=O)[C@H]32)[C@@H](C)[C@@H]1O [Example 4, 14-deoxy-14-[(β-D-glucopyranosyl)oxyacetoxy]-mutilin] | – | – | – | – | – | 12 to 13 | – | – | – | – | – | – | – | – | – | R | 0.78 (≈ 1.44 µM) | 0.78 (≈ 1.44 µM) | 0.39 (≈ 0.721 µM) | Activity (color reaction) (Spiroplasma citri; 0.1 ppm): Y
